{"source": "the OPERA property sets (Mansouri et al. 2018)", "data": [{"values": [{"smiles": "CC(C)(C)N(NC(=O)c1ccccc1)C(=O)c1ccc(C#N)cc1", "logP": 2.5}, {"smiles": "CC(C)(C)N(NC(=O)c1ccccc1)C(=O)c1cccc(C#N)c1", "logP": 2.34}, {"smiles": "CC(C)(C)N(NC(=O)c1ccccc1)C(=O)c1ccc(I)cc1", "logP": 3.78}, {"smiles": "CC(C)(C)N(NC(=O)c1ccccc1)C(=O)c1c(F)cccc1F", "logP": 2.16}, {"smiles": "CC(C)(C)N(NC(=O)c1ccccc1)C(=O)c1c(Cl)cccc1Cl", "logP": 2.56}, {"smiles": "CC(C)(C)N(NC(=O)c1ccccc1)C(=O)c1ccc([N+](=O)[O-])cc1", "logP": 2.63}, {"smiles": "CCc1ccccc1C(=O)N(NC(=O)c1ccccc1)C(C)(C)C", "logP": 2.96}, {"smiles": "CC(C)(C)N(NC(=O)c1ccccc1)C(=O)c1ccccc1Br", "logP": 2.69}, {"smiles": "COc1ccc(C(=O)N(NC(=O)c2ccccc2)C(C)(C)C)cc1OC", "logP": 2.09}, {"smiles": "COc1cccc(C(=O)N(NC(=O)c2ccccc2)C(C)(C)C)c1", "logP": 2.56}, {"smiles": "CC(C)(C)N(NC(=O)c1ccccc1)C(=O)c1cccc(Cl)c1", "logP": 3.28}, {"smiles": "Cc1ccc(C(=O)N(NC(=O)c2ccccc2)C(C)(C)C)cc1", "logP": 2.99}, {"smiles": "Cc1ccc(C(=O)N(NC(=O)c2ccccc2)C(C)(C)C)c(C)c1", "logP": 3.18}, {"smiles": "Cc1ccccc1C(=O)N(NC(=O)c1ccccc1)C(C)(C)C", "logP": 2.75}, {"smiles": "CC(C)(C)N(NC(=O)c1ccccc1)C(=O)c1ccc(Cl)c(Cl)c1", "logP": 4.25}, {"smiles": "CC(C)(C)N(NC(=O)c1ccccc1Cl)C(=O)c1ccccc1Cl", "logP": 2.75}, {"smiles": "CC(C)(C)N(NC(=O)c1ccccc1)C(=O)c1ccccc1F", "logP": 2.38}, {"smiles": "CC(C)(C)N(NC(=O)c1ccccc1)C(=O)c1ccccc1", "logP": 2.45}, {"smiles": "CC(C)(C)N(NC(=O)c1ccccc1)C(=O)c1ccccc1[N+](=O)[O-]", "logP": 2.27}, {"smiles": "CC(C)(C)N(NC(=O)c1ccccc1)C(=O)c1ccccc1I", "logP": 2.83}, {"smiles": "COc1ccccc1C(=O)N(NC(=O)c1ccccc1)C(C)(C)C", "logP": 2.04}, {"smiles": "CC(C)(C)N(NC(=O)c1ccccc1)C(=O)c1c(F)cccc1Cl", "logP": 2.34}, {"smiles": "Cc1c(Cl)cccc1C(=O)N(NC(=O)c1ccccc1)C(C)(C)C", "logP": 3.57}, {"smiles": "COc1ccc(C(=O)N(NC(=O)c2ccccc2)C(C)(C)C)cc1", "logP": 2.56}, {"smiles": "Cc1ccc(C(=O)N(NC(=O)c2ccccc2)C(C)(C)C)cc1C", "logP": 3.34}, {"smiles": "CC(C)(C)N(NC(=O)c1ccccc1)C(=O)c1cc(F)c(F)c(F)c1F", "logP": 3.44}, {"smiles": "CC(C)(C)N(NC(=O)c1cccc(Cl)c1)C(=O)c1ccccc1Cl", "logP": 3.49}, {"smiles": "CC(C)(C)N(NC(=O)c1ccccc1)C(=O)c1ccccc1C(F)(F)F", "logP": 2.85}, {"smiles": "Cc1cccc(C(=O)N(NC(=O)c2ccccc2)C(C)(C)C)c1", "logP": 2.79}, {"smiles": "CC(C)(C)N(NC(=O)c1ccccc1)C(=O)c1cccc(C(F)(F)F)c1", "logP": 3.61}, {"smiles": "CC(C)(C)N(NC(=O)c1ccccc1)C(=O)c1cccc(F)c1", "logP": 2.78}, {"smiles": "CC(C)(C)N(NC(=O)c1ccccc1)C(=O)c1cccc(Br)c1", "logP": 3.49}, {"smiles": "CC(C)(C)N(NC(=O)c1ccccc1)C(=O)c1ccc(C(F)(F)F)cc1", "logP": 3.77}, {"smiles": "CC(C)(C)N(NC(=O)c1ccccc1)C(=O)c1c(F)c(F)c(F)c(F)c1F", "logP": 3.25}, {"smiles": "Cc1cccc(C(=O)N(NC(=O)c2ccccc2)C(C)(C)C)c1C", "logP": 3.1}, {"smiles": "CC(C)(C)N(NC(=O)c1ccccc1)C(=O)c1cccc(Cl)c1Cl", "logP": 3.41}, {"smiles": "CC(C)(C)N(NC(=O)c1ccccc1)C(=O)c1ccc(Br)cc1", "logP": 3.66}, {"smiles": "CC(C)(C)N(NC(=O)c1ccccc1)C(=O)c1ccc(F)cc1", "logP": 2.85}, {"smiles": "CC(C)(C)N(NC(=O)c1ccccc1)C(=O)c1ccc(Cl)cc1Cl", "logP": 3.55}, {"smiles": "Cc1cc(C)cc(C(=O)N(NC(=O)c2ccccc2)C(C)(C)C)c1", "logP": 3.39}, {"smiles": "Cc1ccc(C)c(C(=O)N(NC(=O)c2ccccc2)C(C)(C)C)c1", "logP": 3.25}, {"smiles": "CC(C)(C)N(NC(=O)c1ccccc1)C(=O)c1ccc(Cl)cc1", "logP": 3.42}, {"smiles": "CSc1ccccc1C(=O)N(NC(=O)c1ccccc1)C(C)(C)C", "logP": 2.6}, {"smiles": "CC(C)(C)N(NC(=O)c1ccccc1)C(=O)c1cc(Cl)ccc1Cl", "logP": 3.36}, {"smiles": "CC(C)(C)N(NC(=O)c1ccccc1)C(=O)c1cccc(I)c1", "logP": 3.72}, {"smiles": "CC(C)(C)N(NC(=O)c1ccccc1)C(=O)c1cccc([N+](=O)[O-])c1", "logP": 2.73}]}]}
